Source: patent US20240246934A1, “QUINAZOLINE-BASED COMPOUND, COMPOSITION, AND APPLICATION OF QUINAZOLINE-BASED COMPOUND” (BEIJING SCITECH-MQ PHARMACEUTICALS LIMITED, priority 2021, published 2024)
Where two headings read alike, the source gives them in different places.

Key:
[1] = target: T1, HER2 kinase (Homo sapiens, UniProt P04626); assay: HER2 kinase assay (ULight/PT66 TR-FRET); format: biochemical
T1 construct: purchased Carna Biosciences 08-016
Outline: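 HER2 kinase preincubated 5 min with compounds (11-point 3-fold series, duplicates), then reacted 120 min at room temperature with ATP and ULight-poly GT peptide, each prepared at 4× working concentration (40 μM ATP, 400 nM substrate, 40 nM kinase). PT66 antibody added for 60 min, TR-FRET read; IC50 from inhibition curves.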

[2] = target: EGFR^WT kinase (Homo sapiens, UniProt P00533); assay: EGFR^WT kinase assay (ULight/PT66 TR-FRET); format: biochemical
Outline: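 Enzyme preincubated 5 min with compound (11-point 3-fold series, duplicate), then ULight-JAK-1 (Tyr1023) peptide and ATP added at 4× stocks of 400 nM and 600 μM; 120 min reaction at room temperature. PT66 antibody TR-FRET read after 60 min; IC50 fitted from inhibition rates.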

[3] = target: Ba/F3 EGFR D770_N771insSVD cells (Homo sapiens, UniProt P00533, DUP768-770, cells depend on it); assay: Inhibition of cell proliferation, CTG method, Ba/F3 EGFR D770_N771insSVD; format: cell-based; conditions: 72 hours, read-out: Ba/F3 EGFR D770_N771insSVD IC50
Excerpt: The present application examined the in vitro anti-proliferative activity of the compounds of the present disclosure against in vitro cultured BT474, NCI-N87, Ba/F3-EGFR-VIII and Ba/F3 HER2 A775_G776insYVMA and Ba/F3 EGFR D770_N771insSVD cell lines by CTG method.
Reagents and consumables: RPMI1640 (ThermoFisher, Cat. No. C11875500BT); fetal bovine serum (Hyclone, Cat. No. SV30087.03); 0.25% trypsin-EDTA (ThermoFisher, Cat. No. 25200-072); penicillin-streptomycin (Hyclone, Cat. No. SV30010); DMSO (Amresco, Cat. No. 0231-500ML); CTG assay kit (Promega, Cat. No. G924C); 96-well plate (Corning, Cat. No. 3603); multifunctional plate reader (Perkin Elmer, Cat. No. Envision)
Cell lines: BT474 (from the cell bank of Chinese Academy of Sciences), NCI-N87 (from ATCC), Ba/F3-EGFR-VIII, Ba/F3 HER2 A775_G776insYVMA and Ba/F3 EGFR D770_N771insSVD (all from KYinno Biotechnology (Beijing) Co., Ltd.); all of the above cells were cultured with RPMI1640 medium containing 10% fetal bovine serum, 100 U/mL penicillin, and 100 μg/mL streptomycin in the culture process.
1. The assay compound was dissolved with DMSO to form a stock solution and a gradient dilution was performed, followed by dilution with the corresponding medium to obtain a solution with 5-fold working concentration.
2. Cells in logarithmic growth phase were adjusted to specific cell densities by dilution with culture medium, and 80 μL of cell suspension was added to a 96-well plate, such that plating densities of cells of BT474, NCI-N87, Ba/F3-EGFR-VIII, Ba/F3 HER2 A775_G776insYVMA and Ba/F3 EGFR D770_N771insSVD were all 3000 cells/well. The cells of Ba/F3-EGFR-VIII, Ba/F3 HER2 A775_G776insYVMA and Ba/F3 EGFR D770_N771insSVD were used directly in the next step (treatment with compound), whereas the BT474 and NCI-N87 needed to be cultured overnight in a 37° C., 5% carbon dioxide gas incubator to adhere to the wall, and then treated with compounds.
3. 20 μL of compound solution was added to each well of the 96-well plate that had been inoculated with cells. The highest concentration of the assayed compound was 10 μM, 4-fold serial dilution, a total of 9 concentrations, and duplicate wells. A control group without compound was also set up.
4. The cells were cultured for another 72 hours, and then cell viability was detected by CTG assay kit. Signal values were read with a multifunctional plate reader (Perkin Elmer). GraphPad Prism software was used to create a dose-response curve and IC50 was calculated.

[4] = target: Ba/F3 HER2 A775_G776insYVMA cells (Homo sapiens, UniProt P04626, DUP772-775, cells depend on it); assay: Inhibition of cell proliferation, CTG method, Ba/F3 HER2 A775_G776insYVMA; format: cell-based
Outline: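 Ba/F3 HER2 A775_G776insYVMA cells in RPMI1640 with 10% FBS were plated at 3000 cells/well and treated directly with compound (top 10 μM, 4-fold, 9 concentrations, duplicates).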

[5] = Brain tissue and whole blood concentration in SD rats after oral administration; format: in vivo; conditions: rat, PO 10 mg/kg, 2 h after administration; for Kp at 2 h: brain / whole blood, read-out: Brain tissue/blood ratio
Method: In this assay, the pharmacokinetic characteristics of the compounds of the present application were assayed after administration of some of the compounds of the present application to SD rats by single oral administration and intravenous injection.
2. […] The mixture was stirred, vortexed and/or sonicated. Once a solution was obtained, the vehicle was gradually added to a final volume to reach the target concentration. The solution was vortexed, and sonicated to obtain a homogeneous solution.
Meanwhile, the IV group was not fasted and the PO group was fasted overnight (>12 hrs) and given food 2 hrs after drug administration. All animals had free access to water. The dosing regimen and pharmacokinetic sampling regimen are given in Table 6 and Table 7 below, respectively.
Rats were administered according to the above regimen, and blood and brain tissue samples were collected and processed at predetermined time points (collection and processing were performed according to conventional methods in the art).
The supernatant was diluted 2-fold with ultra-pure water, and the samples were analyzed by LC/MS.
Brain tissues were weighed and homogenized by adding 4-fold homogenizing solution (acetonitrile/water=1/1 v/v). […] The supernatant was diluted 2-fold with ultra-pure water, and the samples were analyzed by LC/MS.

[6] = tested on: Ba/F3 ERBB2 A775_G776insYVMA; assay: Efficacy in nude mouse tumor-bearing model of Ba/F3 ERBB2 A775_G776insYVMA; format: in vivo, BALB/c nude mice; conditions: for effect on tumor size (in words): 30 mg/kg PO; for T/C (%): 30 mg/kg, QD×14, PO, day 14
Method: In this assay, some compounds of the application were orally administered to a nude mouse tumor-bearing model of Ba/F3 ERBB2 A775_G776insYVMA to study the effect of the compounds of the application on tumor growth.
Preparation of the assay compound: an appropriate weight of the compound to be assayed was weighed, and completely dissolved in an appropriate volume of vehicle (DMSO). The mixture was vortexed or sonicated. Then an appropriate amount of Solutol was added and mixed well. Finally, sterilized drinking water was added and the mixture was mixed by stirring or vortexing to obtain a homogeneous solution or suspension.
Method: All the assays were authorized and agreed by the Animal Welfare Committee. Ba/F3 ERBB2 A775_G776insYVMA in a logarithmic growth period was inoculated subcutaneously into the right back of immunodeficient nude mice (BALB/c nude, female, 6-7 weeks of age, body weight 18±2 g) with 4×10^6 cells/rat. After the tumor grew to 150-200 mm^3, the animals were randomly divided into a treatment group and a control group. For the treatment group, a solution of each assay compound was given, and for the control group, a vehicle solution without the assay compound was given. Both of the treatment group and the control group were administered once a day for about 2 weeks. The dose of each assay article was 30 mg/kg (in terms of effective compound concentration), and the assay compounds were all prepared freshly for use. During the assay, the diameter of loaded tumors was measured twice a week, and the mice were weighed at the same time. The tumor volume (TV) was calculated by the formula: TV=½×a×b^2, where a and b denote length and width, respectively. Relative tumor volume (RTV) was calculated based on the measured results by the formula: RTV=Vt/V0, where V0 is the tumor volume measured at grouping and administration and Vt is the tumor volume at each measurement. The evaluation index of antitumor activity was the relative tumor proliferation rate T/C (%) calculated by the formula: T/C (%)=(TRTV/CRTV)×100%, TRTV: RTV of the administration group; CRTV: RTV of the control group. T and C denote the average tumor volume at a certain time point in the administration group and the control group, respectively.

[7] = Pharmacokinetics in SD rats, single intravenous injection and oral administration; format: in vivo, SD rat; conditions: for bioavailability: PO 10 mg/kg vs IV 3 mg/kg, read-out: F % (bioavailability)
Method: In this assay, the pharmacokinetic characteristics of the compounds of the present application were assayed after administration of some of the compounds of the present application to SD rats by single oral administration and intravenous injection. 1. […] The mixture was stirred, vortexed and/or sonicated. Once a solution was obtained, the vehicle was gradually added to a final volume to reach the target concentration. The solution was vortexed, and sonicated to obtain a homogeneous solution. The solution was filtered through a 0.22 μm PVDF membrane. 2. […] The mixture was stirred, vortexed and/or sonicated. Once a solution was obtained, the vehicle was gradually added to a final volume to reach the target concentration. The solution was vortexed, and sonicated to obtain a homogeneous solution. […] Meanwhile, the IV group was not fasted and the PO group was fasted overnight (>12 hrs) and given food 2 hrs after drug administration. All animals had free access to water. The dosing regimen and pharmacokinetic sampling regimen are given in Table 6 and Table 7 below, respectively. […] Rats were administered according to the above regimen, and blood and brain tissue samples were collected and processed at predetermined time points (collection and processing were performed according to conventional methods in the art). […] The supernatant was diluted 2-fold with ultra-pure water, and the samples were analyzed by LC/MS. Pharmacokinetic parameters was calculated using WinNonlin software. The following pharmacokinetic parameters was calculated from the plasma drug concentration-time data: CL (clearance); Vd (apparent volume of distribution); T1/2 (elimination half-life time); Cmax (peak concentration); Tmax (time to peak); AUC (area under plasma drug concentration-time curve); MRT (mean retention time); F % (bioavailability).

[8] = 72 hours, read-out: Ba/F3 HER2 A775-G776insYVMA IC50
[9] = whole blood, read-out: Blood drug concentration
[10] = brain, NA: Exposure was too low to be counted, read-out: Brain tissue concentration
[11] = SD, rat, in vivo, PO 10 mg/kg, NA: Exposure was too low to be counted
[12] = SD, rat, whole blood, IV 3 mg/kg
[13] = SD, rat, whole blood, NA: Exposure was too low to be counted
[14] = SD, rat, whole blood, PO 10 mg/kg, NA: Exposure was too low to be counted

Ba/F3 HER2 A775_G776insYVMA cells, sequence (P04626 with tags, fused parts or gaps DUP772-775): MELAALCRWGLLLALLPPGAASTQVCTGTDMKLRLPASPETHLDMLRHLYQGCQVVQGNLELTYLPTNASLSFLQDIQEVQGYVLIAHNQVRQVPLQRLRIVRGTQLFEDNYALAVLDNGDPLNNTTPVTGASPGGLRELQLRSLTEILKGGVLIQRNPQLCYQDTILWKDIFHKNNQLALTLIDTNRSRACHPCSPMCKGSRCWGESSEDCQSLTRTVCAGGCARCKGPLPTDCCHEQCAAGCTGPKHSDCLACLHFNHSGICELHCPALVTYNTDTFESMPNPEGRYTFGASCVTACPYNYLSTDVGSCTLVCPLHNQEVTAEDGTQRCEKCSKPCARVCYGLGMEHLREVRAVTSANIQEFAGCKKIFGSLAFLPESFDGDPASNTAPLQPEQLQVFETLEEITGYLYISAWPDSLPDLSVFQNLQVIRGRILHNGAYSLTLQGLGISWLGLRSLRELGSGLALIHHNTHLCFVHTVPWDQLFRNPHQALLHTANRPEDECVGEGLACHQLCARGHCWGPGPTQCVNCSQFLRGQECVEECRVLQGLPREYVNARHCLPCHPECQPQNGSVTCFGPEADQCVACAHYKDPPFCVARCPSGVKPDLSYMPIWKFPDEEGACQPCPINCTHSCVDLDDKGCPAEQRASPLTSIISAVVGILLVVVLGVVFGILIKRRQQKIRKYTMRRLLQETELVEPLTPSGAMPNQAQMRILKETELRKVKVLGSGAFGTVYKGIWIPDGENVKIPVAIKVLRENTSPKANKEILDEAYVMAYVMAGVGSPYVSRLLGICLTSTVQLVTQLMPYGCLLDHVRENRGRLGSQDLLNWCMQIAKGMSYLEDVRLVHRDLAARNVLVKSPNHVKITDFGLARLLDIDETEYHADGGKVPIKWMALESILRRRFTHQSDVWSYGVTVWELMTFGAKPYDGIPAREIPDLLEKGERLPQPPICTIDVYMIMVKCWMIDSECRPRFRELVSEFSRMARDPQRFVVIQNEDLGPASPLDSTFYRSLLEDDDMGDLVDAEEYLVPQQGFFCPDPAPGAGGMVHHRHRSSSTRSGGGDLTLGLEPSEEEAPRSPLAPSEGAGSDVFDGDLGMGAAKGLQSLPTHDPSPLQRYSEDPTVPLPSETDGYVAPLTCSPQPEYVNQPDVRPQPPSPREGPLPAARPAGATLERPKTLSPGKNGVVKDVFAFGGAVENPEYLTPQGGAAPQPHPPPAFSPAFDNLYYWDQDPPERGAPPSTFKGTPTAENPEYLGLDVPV
EGFR^WT kinase, sequence (P00533 25-1210): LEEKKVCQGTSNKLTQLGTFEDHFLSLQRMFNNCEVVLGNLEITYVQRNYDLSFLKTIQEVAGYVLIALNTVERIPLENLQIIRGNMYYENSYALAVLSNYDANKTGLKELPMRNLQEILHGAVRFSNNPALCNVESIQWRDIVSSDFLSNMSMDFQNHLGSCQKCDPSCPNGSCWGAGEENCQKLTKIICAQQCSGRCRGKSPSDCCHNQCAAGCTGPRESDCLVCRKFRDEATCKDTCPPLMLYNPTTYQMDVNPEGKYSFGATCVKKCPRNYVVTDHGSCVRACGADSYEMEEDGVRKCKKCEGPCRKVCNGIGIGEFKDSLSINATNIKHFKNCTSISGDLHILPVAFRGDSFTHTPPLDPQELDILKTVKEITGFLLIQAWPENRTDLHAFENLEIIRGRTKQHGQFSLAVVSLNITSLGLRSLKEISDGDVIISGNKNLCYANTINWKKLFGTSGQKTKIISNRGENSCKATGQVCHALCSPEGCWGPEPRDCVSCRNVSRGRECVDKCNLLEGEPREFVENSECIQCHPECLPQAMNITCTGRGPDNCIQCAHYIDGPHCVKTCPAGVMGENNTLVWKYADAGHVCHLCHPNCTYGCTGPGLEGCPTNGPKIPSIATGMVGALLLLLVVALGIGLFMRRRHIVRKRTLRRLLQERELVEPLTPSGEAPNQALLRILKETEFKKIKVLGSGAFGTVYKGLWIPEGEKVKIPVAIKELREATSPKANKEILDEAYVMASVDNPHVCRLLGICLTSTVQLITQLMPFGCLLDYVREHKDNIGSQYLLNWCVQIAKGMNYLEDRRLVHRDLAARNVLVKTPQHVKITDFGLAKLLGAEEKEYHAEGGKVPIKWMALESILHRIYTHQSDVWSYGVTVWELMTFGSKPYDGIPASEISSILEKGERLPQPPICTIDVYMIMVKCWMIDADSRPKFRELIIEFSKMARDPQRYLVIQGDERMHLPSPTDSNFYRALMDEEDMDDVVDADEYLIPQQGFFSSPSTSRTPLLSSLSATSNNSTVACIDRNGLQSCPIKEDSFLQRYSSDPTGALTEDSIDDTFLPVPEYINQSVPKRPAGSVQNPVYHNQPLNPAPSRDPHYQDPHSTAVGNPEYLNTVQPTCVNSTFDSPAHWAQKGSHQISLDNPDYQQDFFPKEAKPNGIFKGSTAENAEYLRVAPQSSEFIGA
Ba/F3 EGFR D770_N771insSVD cells, sequence (P00533 with tags, fused parts or gaps DUP768-770): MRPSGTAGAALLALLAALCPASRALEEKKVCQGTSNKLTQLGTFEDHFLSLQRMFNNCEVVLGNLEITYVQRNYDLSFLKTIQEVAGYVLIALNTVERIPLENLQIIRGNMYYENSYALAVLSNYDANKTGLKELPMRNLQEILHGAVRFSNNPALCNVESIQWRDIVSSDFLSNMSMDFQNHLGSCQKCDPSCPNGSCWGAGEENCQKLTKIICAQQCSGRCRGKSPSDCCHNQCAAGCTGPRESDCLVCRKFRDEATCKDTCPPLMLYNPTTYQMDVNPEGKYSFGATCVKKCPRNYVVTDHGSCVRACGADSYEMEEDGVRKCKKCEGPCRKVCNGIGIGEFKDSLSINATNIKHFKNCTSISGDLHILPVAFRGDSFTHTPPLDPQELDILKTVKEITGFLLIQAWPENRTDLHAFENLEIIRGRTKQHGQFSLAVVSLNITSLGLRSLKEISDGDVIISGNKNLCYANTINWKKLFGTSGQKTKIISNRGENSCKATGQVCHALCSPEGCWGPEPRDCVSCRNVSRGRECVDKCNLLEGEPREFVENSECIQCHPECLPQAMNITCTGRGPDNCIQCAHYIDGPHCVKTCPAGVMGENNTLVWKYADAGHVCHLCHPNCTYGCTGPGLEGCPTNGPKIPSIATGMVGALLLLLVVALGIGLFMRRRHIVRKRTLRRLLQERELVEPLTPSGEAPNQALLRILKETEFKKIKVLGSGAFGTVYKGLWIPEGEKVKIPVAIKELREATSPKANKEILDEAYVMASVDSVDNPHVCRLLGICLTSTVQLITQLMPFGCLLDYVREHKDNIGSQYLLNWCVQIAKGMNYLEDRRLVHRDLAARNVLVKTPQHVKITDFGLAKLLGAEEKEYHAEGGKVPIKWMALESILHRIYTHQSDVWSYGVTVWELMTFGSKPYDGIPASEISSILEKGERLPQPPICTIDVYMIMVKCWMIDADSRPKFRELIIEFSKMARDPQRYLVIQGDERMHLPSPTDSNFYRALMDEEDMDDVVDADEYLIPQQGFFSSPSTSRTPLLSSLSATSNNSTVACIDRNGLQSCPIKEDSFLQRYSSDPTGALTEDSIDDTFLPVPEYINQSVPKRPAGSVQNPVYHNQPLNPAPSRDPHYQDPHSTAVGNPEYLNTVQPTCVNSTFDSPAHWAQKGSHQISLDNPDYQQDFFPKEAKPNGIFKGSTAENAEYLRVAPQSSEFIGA
T1 sequence (P04626 23-1255): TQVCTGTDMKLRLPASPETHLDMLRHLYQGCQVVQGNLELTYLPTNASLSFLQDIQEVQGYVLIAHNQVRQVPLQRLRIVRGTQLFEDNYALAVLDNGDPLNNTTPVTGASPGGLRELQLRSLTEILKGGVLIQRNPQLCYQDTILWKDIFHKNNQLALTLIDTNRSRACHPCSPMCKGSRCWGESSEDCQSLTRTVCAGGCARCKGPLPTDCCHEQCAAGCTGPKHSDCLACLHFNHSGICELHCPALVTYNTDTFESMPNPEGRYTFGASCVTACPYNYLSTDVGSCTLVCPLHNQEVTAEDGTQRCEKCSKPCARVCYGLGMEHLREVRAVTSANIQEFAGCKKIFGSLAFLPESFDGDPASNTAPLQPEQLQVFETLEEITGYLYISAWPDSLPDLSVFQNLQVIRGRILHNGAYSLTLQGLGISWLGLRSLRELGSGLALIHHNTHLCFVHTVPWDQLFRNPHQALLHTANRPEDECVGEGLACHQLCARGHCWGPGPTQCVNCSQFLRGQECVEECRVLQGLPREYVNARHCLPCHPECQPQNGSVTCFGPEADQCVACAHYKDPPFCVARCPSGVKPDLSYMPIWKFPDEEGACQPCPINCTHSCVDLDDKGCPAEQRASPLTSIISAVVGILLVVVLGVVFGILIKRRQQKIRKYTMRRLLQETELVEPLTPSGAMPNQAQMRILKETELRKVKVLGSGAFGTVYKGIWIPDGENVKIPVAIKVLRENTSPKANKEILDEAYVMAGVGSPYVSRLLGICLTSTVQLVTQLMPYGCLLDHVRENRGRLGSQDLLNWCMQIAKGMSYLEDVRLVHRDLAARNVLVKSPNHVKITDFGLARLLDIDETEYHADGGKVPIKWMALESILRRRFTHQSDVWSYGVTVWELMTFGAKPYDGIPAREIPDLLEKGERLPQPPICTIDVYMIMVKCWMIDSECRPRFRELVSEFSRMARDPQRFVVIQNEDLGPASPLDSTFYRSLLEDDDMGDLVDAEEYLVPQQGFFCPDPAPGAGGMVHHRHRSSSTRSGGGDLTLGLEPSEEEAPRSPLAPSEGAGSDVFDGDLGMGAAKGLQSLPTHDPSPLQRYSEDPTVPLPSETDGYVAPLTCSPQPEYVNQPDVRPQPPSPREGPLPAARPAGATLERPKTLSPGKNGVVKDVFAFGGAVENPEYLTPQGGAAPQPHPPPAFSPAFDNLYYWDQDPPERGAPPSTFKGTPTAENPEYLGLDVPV

Row | Compound | IC50 [1] | IC50 [2] | GI50 [3] | GI50 [4, 8] | concentration at 2 h [5, 9] | Kp at 2 h [5] | concentration at 2 h [5, 10] | effect on tumor size (in words) [6] | T/C (%) [6] | Cl_obs ([7]; IV 3 mg/kg) | AUC(0-inf) [7, 12] | Vd [7, 12] | bioavailability [7, 13] | AUC(0-inf) [7, 14] | other results
1 | CN1CCC[C@@H]1/C=C/C(=O)Nc1ccc2ncnc(Nc3ccc(OCc4ccccn4)c(Cl)c3)c2c1OCCCO [Example 17, (R,E)-N-(4-((3-chloro-4-(pyridin-2-ylmethoxy)phenyl)amino)-5-(3-hydroxypropoxy)quinazolin-6-yl)-3-(1-methylpyrrolidin-2-yl)acrylamide] | < 10 nM | < 10 nM | 10 to 100 nM | 1 to 5 nM |  |  |  |  |  |  |  |  |  |  | 
2 | COCCN1CCC[C@@H]1/C=C/C(=O)Nc1ccc2ncnc(Nc3ccc(OCc4cccc(F)c4)c(Cl)c3)c2c1OC [Example 26] | < 10 nM | 10 to 100 nM | 10 to 100 nM | 1 to 5 nM |  |  |  |  |  |  |  |  |  |  | 
3 | CCOc1cc2ncc(C#N)c(Nc3ccc(OCc4ccccn4)c(Cl)c3)c2cc1NC(=O)/C=C/CN(C)C [NERATINIB, neratinib, reference compound] |  |  |  |  | 440 ng/mL | 0.0366 | 14.4 ng/g | still remain significant growth | 45.9% | 20.8 ± 2.0 mL/min/kg | 2420 ± 252 ng·h/mL | 7.94 ± 1.71 L/kg | 18.2 ± 7.89% | 1470 ± 638 ng·h/mL | GI50 ([4]; read-out: Ba/F3 HER2 A775-G776insYVMA IC50, 72 hours): 10 to 100 nM; AUC(0-t) ([7]; SD, rat, in vivo, IV 3 mg/kg): 2390 ± 267 ng·h/mL; half-life ([7]; SD, rat, in vivo, IV 3 mg/kg): 4.38 ± 0.55 h; AUC(0-t) [7, 11]: 1470 ± 637 ng·h/mL; Cmax [7, 11]: 201 ± 66 ng/mL; half-life [7, 11]: 2.97 ± 0.27 h
4 | CCOc1cc2ncc(C#N)c(Nc3ccc(OCc4ccccn4)c(Cl)c3)c2cc1NC(=O)/C=C/[C@H]1CCCN1C [PYROTINIB, pyrotinib, reference compound] |  |  |  | 10 to 100 nM | 884 ng/mL | 0.0291 | 25.8 ng/g | still remain significant growth | 38.3% | 6.04 ± 0.63 mL/min/kg | 8340 ± 890 ng·h/mL | 1.81 ± 0.26 L/kg | 10.1 ± 4% | 2810 ± 1110 ng·h/mL | AUC(0-t) [7, 12]: 8310 ± 892 ng·h/mL; half-life [7, 12]: 3.45 ± 0.24 h; AUC(0-t) [7, 14]: 2790 ± 1110 ng·h/mL; Cmax [7, 14]: 246 ± 76 ng/mL; Tmax [7, 14]: 4.33 ± 2.52 h; half-life [7, 14]: 3.6 ± 0.37 h
